From ChEMBL document CHEMBL3243996, “[1-Deaminopenicillamine,4-threonine]oxytocin, a potent inhibitor of oxytocin” (J Med Chem, 1978) come the findings set out here.

Activity calls are given as the source filed them. No cut-off for these calls is given here. Starred links: 1 amine or outer side, 2 acyl side, 3 side chain; linkers in the order of their positions; H or OH if unused. Positions of bridges follow the written chain, without caps; N, C: chain ends. Residues, ends and D or L forms follow the SMILES beside them. X2 = O=C(CC1(S[*:2])CCCCC1)[*:1]; X1 = CC(C)(CC(=O)[*:1])S[*:2]

What is called pA2 is the negative logarithm of the molar antagonist concentration that doubles the agonist concentration needed for the same response.

Assay [1] deals with T1, Oxytocin receptor (Rattus norvegicus, UniProt P70536).
T1 sequence (P70536 whole entry): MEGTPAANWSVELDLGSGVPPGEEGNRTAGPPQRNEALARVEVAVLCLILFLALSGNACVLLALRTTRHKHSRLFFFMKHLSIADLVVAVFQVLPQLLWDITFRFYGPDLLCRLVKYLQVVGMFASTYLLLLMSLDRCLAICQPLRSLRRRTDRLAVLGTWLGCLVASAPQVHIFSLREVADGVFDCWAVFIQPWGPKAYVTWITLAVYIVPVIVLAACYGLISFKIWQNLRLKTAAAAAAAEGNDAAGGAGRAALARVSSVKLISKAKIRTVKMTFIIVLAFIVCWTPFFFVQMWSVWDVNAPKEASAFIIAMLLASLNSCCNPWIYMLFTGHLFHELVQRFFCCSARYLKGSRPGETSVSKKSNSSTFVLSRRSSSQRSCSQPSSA
Nature of the assay: (§1) Antagonist activity at oxytocin receptor in rat uterus by average effective molar concentration based analysis. It is filed as tissue-based. Conditions: read-out: pA2 (converted).

Assay [2] addresses T2, Oxytocin receptor (Rattus norvegicus) (UniProt P70536).
T2 sequence (whole entry): T1 sequence (P70536 whole entry)
The assay is described as §1. It is filed as tissue-based.

Assay [3] is described as follows: (§2) Antagonist activity at rat vasopressin receptor.
In assay [4] the target is T1, Oxytocin receptor. In words: (§3) Antagonist activity at oxytocin receptor in rat uterus by Schild's method in absence of Mg2+. Conditions: read-out: pA2 (converted). In kind it is tissue-based.
Assay [5] has as its target T2, Oxytocin receptor (Rattus norvegicus). The description is as §3. In kind it is tissue-based.
The species entered for assay [6] is Rattus norvegicus. The description is as §2.
Assay [7] concerns the target T2, Oxytocin receptor (Rattus norvegicus). Nature of the assay: Agonist activity at oxytocin receptor in rat uterus. In kind it is tissue-based.
For assay [8], the species on record is Rattus norvegicus. In words: Agonist activity at rat vasopressin receptor.

As to `CC[C@H](C)[C@@H]1NC(=O)[C@H](Cc2ccc(O)cc2)NC(=O)[C@@H](N)C(C)(C)SSC[C@@H](C(=O)N2CCC[C@H]2C(=O)N[C@@H](CC(C)C)C(=O)NCC(N)=O)NC(=O)[C@H](CC(N)=O)NC(=O)[C@H](CCC(N)=O)NC1=O`, the Kb in assay [1] was 138 nM.
As for `CC[C@H](C)[C@@H]1NC(=O)[C@H](Cc2ccc(O)cc2)NC(=O)CC(C)(C)SSC[C@@H](C(=O)N2CCC[C@H]2C(=O)N[C@@H](CC(C)C)C(=O)NCC(N)=O)NC(=O)[C@H](CC(N)=O)NC(=O)[C@H](CCC(N)=O)NC1=O` (YIQNCPLG-NH2; linker N-5 via X1), the Kb in assay [1] was 115 nM; in assay [4] it was 72.4 nM. Besides, the A2 came out at 11.6 ×10⁻⁸ M in assay [2] and 9.1 ×10⁻⁸ M in assay [5]. In assay [3], this compound returned a pA2 of 6.27.
Regarding `CC[C@H](C)[C@@H]1NC(=O)[C@H](Cc2ccc(O)cc2)NC(=O)CC2(CCCCC2)SSC[C@@H](C(=O)N2CCC[C@H]2C(=O)N[C@@H](CC(C)C)C(=O)NCC(N)=O)NC(=O)[C@H](CC(N)=O)NC(=O)[C@H](CCC(N)=O)NC1=O` (YIQNCPLG-NH2; linker N-5 via X2), the Kb in assay [1] and in assay [4] was 37.2 nM each time. Also, the A2 in assay [2] came to 3.7 ×10⁻⁸ M. In addition, the outcome in assay [6] was Active.
For the compound `CC[C@H](C)[C@@H]1NC(=O)[C@H](Cc2ccc(O)cc2)NC(=O)CC(C)(C)SSC[C@@H](C(=O)N2CCC[C@H]2C(=O)N[C@@H](CC(C)C)C(=O)NCC(N)=O)NC(=O)[C@H](CC(N)=O)NC(=O)[C@H]([C@@H](C)O)NC1=O` (stereo in doubt; 1a) [listing 1 of 2 here], the pA2 in assay [3] came to 6.67. Moreover, in assay [4], the Kb was 34.7 nM.
With `CC[C@H](C)[C@@H]1NC(=O)[C@H](Cc2ccc(O)cc2)NC(=O)CC(C)(C)SSC[C@@H](C(=O)N2CCC[C@H]2C(=O)N[C@@H](CC(C)C)C(=O)NCC(N)=O)NC(=O)[C@H](CC(N)=O)NC(=O)[C@H]([C@@H](C)O)NC1=O` (stereo in doubt; 1a) [listing 2 of 2 here], the outcome in assay [7] and in assay [8] was inactive. Also, the A2 in assay [5] amounted to 4 ×10⁻⁸ M.
Take `CC[C@H](C)[C@@H]1NC(=O)[C@H](Cc2ccc(O)cc2)NC(=O)CC(C)(C)SSC[C@@H](C(=O)N2CCC[C@H]2C(=O)N[C@@H](CC(C)C)C(=O)NCC(N)=O)NC(=O)[C@H](CC(N)=O)NC(=O)[C@H]([C@@H](C)O)NC1=O` (stereo in doubt; 1b) [listing 1 of 2 here]: the Kb in assay [4] is 25.7 nM.
Compound `CC[C@H](C)[C@@H]1NC(=O)[C@H](Cc2ccc(O)cc2)NC(=O)CC(C)(C)SSC[C@@H](C(=O)N2CCC[C@H]2C(=O)N[C@@H](CC(C)C)C(=O)NCC(N)=O)NC(=O)[C@H](CC(N)=O)NC(=O)[C@H]([C@@H](C)O)NC1=O` (stereo in doubt; 1b) [listing 2 of 2 here] registered an A2 in assay [5] of 4.3 ×10⁻⁸ M.
